ChEMBL document CHEMBL1201862, “PubChem BioAssay data set” (2004)
Calls of active or inactive are those of the source.

Experiments:
[1] = molecular target: T1, DNA repair protein RAD52 homolog (Homo sapiens, UniProt P43351); format: functional, biochemical
T1 sequence (P43351 whole entry): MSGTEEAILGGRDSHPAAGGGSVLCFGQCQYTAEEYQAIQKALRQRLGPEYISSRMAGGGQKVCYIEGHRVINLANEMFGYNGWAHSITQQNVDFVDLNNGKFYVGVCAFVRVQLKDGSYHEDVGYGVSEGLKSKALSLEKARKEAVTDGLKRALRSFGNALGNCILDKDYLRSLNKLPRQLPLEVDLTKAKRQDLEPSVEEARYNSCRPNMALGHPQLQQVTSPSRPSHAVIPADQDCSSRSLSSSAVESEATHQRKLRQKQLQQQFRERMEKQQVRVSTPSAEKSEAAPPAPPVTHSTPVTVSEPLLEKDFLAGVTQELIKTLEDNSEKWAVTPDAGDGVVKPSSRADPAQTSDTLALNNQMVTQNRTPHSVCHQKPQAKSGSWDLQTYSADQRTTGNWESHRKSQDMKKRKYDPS

[2] = molecular target: T2, Rac GTPase-activating protein 1 (Homo sapiens, UniProt Q9H0H5); test: blockers of MgcRacGAP-driven Rac1 GTP hydrolysis – biochemical, ADP Hunter fluorescence, primary and confirmatory, confirmation (AID 624330); format: functional
T2 sequence (Q9H0H5 whole entry): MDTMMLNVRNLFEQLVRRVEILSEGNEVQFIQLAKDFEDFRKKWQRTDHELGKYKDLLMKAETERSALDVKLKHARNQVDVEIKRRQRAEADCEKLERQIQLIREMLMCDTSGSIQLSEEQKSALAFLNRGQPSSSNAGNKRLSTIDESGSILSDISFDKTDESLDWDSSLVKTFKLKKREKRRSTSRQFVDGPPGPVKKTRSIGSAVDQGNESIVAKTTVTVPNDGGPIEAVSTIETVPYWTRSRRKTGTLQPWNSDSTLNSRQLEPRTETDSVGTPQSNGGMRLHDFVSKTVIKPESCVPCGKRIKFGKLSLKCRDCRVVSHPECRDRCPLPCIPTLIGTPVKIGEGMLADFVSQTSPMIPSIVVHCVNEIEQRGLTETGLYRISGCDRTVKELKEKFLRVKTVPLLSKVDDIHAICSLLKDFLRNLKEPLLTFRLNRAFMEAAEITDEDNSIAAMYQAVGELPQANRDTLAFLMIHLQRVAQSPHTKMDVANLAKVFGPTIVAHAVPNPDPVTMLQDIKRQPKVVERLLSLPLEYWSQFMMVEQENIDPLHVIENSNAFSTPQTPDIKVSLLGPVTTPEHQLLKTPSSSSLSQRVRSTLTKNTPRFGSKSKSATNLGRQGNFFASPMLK

Fatty acid synthase [3] = molecular target: T3, Fatty acid synthase (Homo sapiens, UniProt P49327); test: inhibition of human FAS-TE enzyme activity – biochemical, kinetic fluorescence intensity, dose response (AID 624326); format: functional;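 note: rate of fluorescence rise from hydrolysis of a fluorogenic O-methyl fluorescein ester substrate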
Fatty acid synthase [4] = molecular target: T3, Fatty acid synthase; test: inhibition of human FAS-TE enzyme activity – biochemical, endpoint fluorescence intensity, uHTS hits, dose response (AID 624327); format: functional;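 note: fluorescence from hydrolysis of an O-methyl fluorescein acyl ester substrate by the enzyme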
Kallikrein-7 = Kallikrein-7 (Homo sapiens, UniProt P49862); test: Fluorescence Intensity-based biochemical primary high throughput dose response assay to identify activators of kallikrein-7 (K7) zymogen.
Prothrombin = Prothrombin (Homo sapiens, UniProt P00734); test: Thrombin 1536 HTS Dose Response Confirmation. [Related pubchem assays: 1046 (Thrombin 1536 HTS; hits were confirmed in this assay)]; format: functional
[5] = general mammalian cell viability loss – inhibitor set, cherry-pick, set 2, cytotoxicity control for miR-122 modulator project, dose response (AID 720697); format: functional, cell-based
cells = format: functional, cell-based
[6] = molecular target: T4, Nuclear receptor subfamily 0 group B member 1 (Homo sapiens, UniProt P51843); format: functional, cell-based;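 note: HEK293T cells transfected with SF-1 and DAX-1 plus StAR promoter luciferase reporter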
T4 sequence (P51843 whole entry): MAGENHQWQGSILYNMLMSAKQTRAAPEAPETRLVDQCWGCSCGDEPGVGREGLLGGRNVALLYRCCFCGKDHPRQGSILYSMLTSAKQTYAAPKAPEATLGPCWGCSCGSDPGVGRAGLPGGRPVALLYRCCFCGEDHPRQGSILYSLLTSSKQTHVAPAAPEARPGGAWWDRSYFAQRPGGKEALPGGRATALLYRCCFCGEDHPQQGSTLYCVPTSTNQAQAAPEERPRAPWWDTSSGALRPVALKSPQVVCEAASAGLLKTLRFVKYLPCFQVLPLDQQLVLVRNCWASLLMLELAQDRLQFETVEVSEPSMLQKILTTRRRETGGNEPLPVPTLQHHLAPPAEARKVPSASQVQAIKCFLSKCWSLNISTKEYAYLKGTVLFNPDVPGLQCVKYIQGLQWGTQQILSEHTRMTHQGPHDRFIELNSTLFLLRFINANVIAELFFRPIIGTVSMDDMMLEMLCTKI

T3 sequence (P49327 whole entry): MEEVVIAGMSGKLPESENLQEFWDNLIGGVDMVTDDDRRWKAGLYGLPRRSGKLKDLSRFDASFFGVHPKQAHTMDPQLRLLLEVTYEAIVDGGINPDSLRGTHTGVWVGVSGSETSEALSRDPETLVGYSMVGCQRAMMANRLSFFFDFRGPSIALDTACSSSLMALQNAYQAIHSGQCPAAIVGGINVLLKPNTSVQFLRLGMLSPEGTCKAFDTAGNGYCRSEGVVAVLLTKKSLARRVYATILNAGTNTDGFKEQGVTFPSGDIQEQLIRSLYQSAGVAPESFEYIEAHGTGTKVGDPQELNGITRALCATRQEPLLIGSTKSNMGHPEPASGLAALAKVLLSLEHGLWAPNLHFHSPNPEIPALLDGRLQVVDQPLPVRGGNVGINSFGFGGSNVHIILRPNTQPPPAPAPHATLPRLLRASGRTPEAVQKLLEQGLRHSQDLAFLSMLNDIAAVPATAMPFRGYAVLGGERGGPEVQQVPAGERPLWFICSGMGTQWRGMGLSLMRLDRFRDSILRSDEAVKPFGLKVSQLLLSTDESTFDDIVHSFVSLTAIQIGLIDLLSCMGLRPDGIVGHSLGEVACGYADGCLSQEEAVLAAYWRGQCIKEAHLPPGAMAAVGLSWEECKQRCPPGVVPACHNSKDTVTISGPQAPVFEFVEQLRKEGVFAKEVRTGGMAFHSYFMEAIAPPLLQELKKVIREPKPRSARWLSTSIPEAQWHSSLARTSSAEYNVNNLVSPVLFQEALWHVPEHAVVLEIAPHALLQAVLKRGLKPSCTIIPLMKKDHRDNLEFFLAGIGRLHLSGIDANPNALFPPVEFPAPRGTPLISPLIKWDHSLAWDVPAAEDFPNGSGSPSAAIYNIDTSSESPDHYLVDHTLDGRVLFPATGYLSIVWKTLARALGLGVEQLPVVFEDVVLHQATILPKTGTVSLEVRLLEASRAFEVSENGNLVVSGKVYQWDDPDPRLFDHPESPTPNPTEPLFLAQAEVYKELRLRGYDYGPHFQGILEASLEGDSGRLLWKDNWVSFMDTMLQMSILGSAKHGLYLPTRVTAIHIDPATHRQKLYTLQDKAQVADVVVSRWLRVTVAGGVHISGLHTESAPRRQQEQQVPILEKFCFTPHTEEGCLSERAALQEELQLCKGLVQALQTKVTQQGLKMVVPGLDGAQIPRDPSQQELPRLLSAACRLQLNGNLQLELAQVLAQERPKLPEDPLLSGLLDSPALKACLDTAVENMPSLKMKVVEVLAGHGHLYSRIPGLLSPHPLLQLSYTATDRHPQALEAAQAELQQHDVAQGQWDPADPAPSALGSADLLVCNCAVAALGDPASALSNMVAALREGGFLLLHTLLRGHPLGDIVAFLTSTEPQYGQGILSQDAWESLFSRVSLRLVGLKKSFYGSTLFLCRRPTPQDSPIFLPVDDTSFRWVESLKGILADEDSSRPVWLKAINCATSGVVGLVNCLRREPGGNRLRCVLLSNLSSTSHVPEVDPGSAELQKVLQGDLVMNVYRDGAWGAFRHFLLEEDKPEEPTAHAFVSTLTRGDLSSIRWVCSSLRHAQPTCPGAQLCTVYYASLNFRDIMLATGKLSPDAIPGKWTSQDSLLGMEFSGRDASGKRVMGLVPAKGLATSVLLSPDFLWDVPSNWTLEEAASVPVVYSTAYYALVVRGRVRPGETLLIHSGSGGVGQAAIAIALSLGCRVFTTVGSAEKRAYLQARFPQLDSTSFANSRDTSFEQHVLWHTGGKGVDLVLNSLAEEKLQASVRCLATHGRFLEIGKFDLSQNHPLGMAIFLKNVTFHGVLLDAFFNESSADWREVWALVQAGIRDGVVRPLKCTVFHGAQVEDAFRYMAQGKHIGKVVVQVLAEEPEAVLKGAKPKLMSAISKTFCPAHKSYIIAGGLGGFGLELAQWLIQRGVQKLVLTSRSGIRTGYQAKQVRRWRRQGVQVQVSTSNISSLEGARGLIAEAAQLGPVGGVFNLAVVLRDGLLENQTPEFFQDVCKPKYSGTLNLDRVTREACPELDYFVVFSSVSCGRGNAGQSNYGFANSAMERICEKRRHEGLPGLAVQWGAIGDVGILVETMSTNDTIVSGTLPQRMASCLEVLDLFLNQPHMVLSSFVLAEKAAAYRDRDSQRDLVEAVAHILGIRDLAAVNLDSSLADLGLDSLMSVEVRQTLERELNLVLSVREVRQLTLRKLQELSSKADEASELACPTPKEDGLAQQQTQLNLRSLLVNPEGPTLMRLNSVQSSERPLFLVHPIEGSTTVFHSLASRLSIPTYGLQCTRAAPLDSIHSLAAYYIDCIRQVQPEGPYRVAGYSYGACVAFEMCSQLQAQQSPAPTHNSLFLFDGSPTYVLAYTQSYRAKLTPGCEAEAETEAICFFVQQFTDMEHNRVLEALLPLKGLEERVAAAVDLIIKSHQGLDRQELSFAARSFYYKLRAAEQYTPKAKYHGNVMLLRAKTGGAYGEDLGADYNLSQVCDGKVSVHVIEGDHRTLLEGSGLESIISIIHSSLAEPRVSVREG
Kallikrein-7, sequence (P49862 whole entry): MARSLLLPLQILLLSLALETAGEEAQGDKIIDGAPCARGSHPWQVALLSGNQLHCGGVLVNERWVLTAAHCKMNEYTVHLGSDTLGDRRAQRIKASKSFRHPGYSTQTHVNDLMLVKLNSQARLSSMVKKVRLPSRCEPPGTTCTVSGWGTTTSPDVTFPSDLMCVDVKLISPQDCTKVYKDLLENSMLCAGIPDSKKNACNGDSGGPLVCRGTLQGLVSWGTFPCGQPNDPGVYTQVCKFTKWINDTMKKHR

## CN1CCN(CCCNCc2cn(CCC#N)c3ccccc23)CC1
[1]
  AC50: 4.32 µM (active)
[2]
  IC50: 64.3 µM (active)

## Cc1cc(C(C)(C)C)cc(C)c1COC(=O)CN1C(=O)NC2(CCCC2)C1=O
Fatty acid synthase [3]
  IC50: 13.2 µM (active)
Fatty acid synthase [4]
  IC50: 15.8 µM (active)

## COC(=O)c1ccc(C2C(C#N)=C(C)N=C3CC(C)(C)CC(O)=C32)cc1 (stereo unspecified)
Kallikrein-7
  EC50: 20.8 µM (inactive)

## CCC(C)NCCOc1cc(C)cc(C)c1C (stereo unspecified)
Prothrombin
  IC50: > 50 µM (not active)

## N#Cc1c(NC(=O)COC(=O)c2nccnc2N)sc2c1CCCC2
Kallikrein-7
  EC50: > 69.5 µM (inactive)

## c1ccc(CCCNCCCn2cnc3c(OCc4ccccc4)ncnc32)cc1
[5]
  AC50: 7.5 µM (active)

## COc1ccccc1C=C1CCc2ccccc2C1=O
cells
  IC50: > 67.5 µM (inactive)
[6]
  IC50: > 67.5 µM (inactive)

## COc1ccccc1-c1nnc2n1N=C(c1ccc3c(c1)OCO3)CS2
cells
  IC50: > 67.6 µM (inactive)
[6]
  IC50: > 67.6 µM (inactive)

## CO[C@@H]1CN(C)C(=O)c2cc(NC(=O)c3cccc(Oc4ccccc4)c3)ccc2OC[C@H](C)NC[C@@H]1C
[5]
  AC50: 15.1 µM (active)

## COc1ccc2c(c1)CCC/C2=N\NC(=O)c1ccoc1C
cells
  IC50: > 67.5 µM (inactive)
[6]
  IC50: > 67.5 µM (inactive)

## CCOc1cc(-c2nccc3cc(OC)c(OC)cc23)cc(OCC)c1OCC [OCTAVERINE]
[5]
  AC50: 1.89 µM (active)
